For series [1], the system named is Eya. In words: Eya phosphatase activity pNPP screen, plate controls. The conditions noted are these: plate control. It counts as biochemical. As for the experimental part:
Phosphatase Activity Assay. Phosphatase activity of Eya is measured using the p-nitrophenyl phosphate (pNPP) assay. In this assay, reaction mixtures of approximately 60 uL in 20 mM MES (pH 5.5), various concentrations of pNPP and cations are pre-equilibrated at 30° C. for 10 minutes. The assay is initiated by the addition of 0.3 ug of enzyme in 20 mM Tris (pH 8.0) and 150 mM NaCl. The reaction mixture is incubated for 20 minutes, and then quenched with 100 uL of 0.4 M EDTA, pH 10.0. Release of p-nitrophenol (pNP) is monitored by measuring absorbance at a wavelength of 410 (A410) and extrapolating the values into the Michaelis-Menten equation using SIGMAPLOT (SPSS Science, Chicago, Ill.). pNP release can be plotted as a function of time when various enzyme concentrations are used.
The protocol is substantially that described in references 4, 17 and 18. Eya phosphatase activity is measured using the model chromogenic substrate p-nitro-phenylphosphate (pNPP) as described. […] To ensure data quality and assay robustness, the Z value is used. The Z value is based on the difference between the signal of the positive control (ie, no test compound) and that of the negative control (no Eya protein or polypeptide). The Z value incorporates the standard deviation of each signal. A Z value of 1.0 is considered perfect, and Z values above 0.5 are generally considered ideal for HTS. […] In both the primary and secondary screen, every plate also contains three additional controls: 20 mM Na-o-vanadate (which inhibits Eya), 20 mM EDTA (which inhibits 100% of Eya activity) and 50 mM NaF (which inhibits Eya).

Series [2] concerns the target T1, human SIX6 (UniProt O95475).
T1 sequence: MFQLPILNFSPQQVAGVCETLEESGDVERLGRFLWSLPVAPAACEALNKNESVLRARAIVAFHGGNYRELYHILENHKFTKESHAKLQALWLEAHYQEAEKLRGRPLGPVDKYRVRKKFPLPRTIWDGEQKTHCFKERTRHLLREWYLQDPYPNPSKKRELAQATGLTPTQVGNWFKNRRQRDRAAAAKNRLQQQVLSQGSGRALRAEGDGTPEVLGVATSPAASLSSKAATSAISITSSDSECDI

Series [3] has as its system T2, Six2 fragment derived from mouse Six protein (SEQ ID NO. 6).
T2 sequence: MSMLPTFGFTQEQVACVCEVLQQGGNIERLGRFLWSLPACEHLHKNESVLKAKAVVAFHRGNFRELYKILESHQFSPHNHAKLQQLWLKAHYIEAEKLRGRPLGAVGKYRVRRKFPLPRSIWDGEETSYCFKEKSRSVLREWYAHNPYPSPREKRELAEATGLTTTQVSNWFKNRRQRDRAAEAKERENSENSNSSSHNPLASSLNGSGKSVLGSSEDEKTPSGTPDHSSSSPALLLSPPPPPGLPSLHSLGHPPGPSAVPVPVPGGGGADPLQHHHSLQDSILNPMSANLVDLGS

The test system of series [4] is T3, histone H2AX C-terminus peptide (KKATQASQEpY).
T3 sequence: KKATQASQEY

With `[Na+].[Na+].[Na+].[O]=[V]([O-])([O-])[O-]` [Na-o-vanadate], in series [1] (20 mM Na-o-vanadate), the “inhibition of Eya” value is listed as “inhibits Eya”.

Regarding `[F-].[Na+]` [NaF], the “inhibition of Eya” value in series [1] (50 mM NaF) was “inhibits Eya”.

As to Full-length murine Eya3, the “kcat of Eya3 (dephosphorylation of the H2AX-pY peptide, malachite-green type phosphate release), with stoichiometric SIX6” value in series [2] is given as “The interaction with these SIX proteins increases the kcat of Eya3, while the Km values remain relatively similar”. Further, the “kcat of Eya3 (dephosphorylation of the H2AX-pY peptide, malachite-green type phosphate release), with stoichiometric SIX2” value in series [3] is listed as “The interaction with these SIX proteins increases the kcat of Eya3, while the Km values remain relatively similar”. For the same molecule, in series [4], the “catalytic rate of dephosphorylation of the tyrosine-phosphorylated H2AX peptide” value is listed as “The ability of Eya3 to dephosphorylate a tyrosine-phosphorylated peptide derived from H2AX was monitored in the presence or absence of stoichiometric amounts of either SIX2 or SIX6. The catalytic rate at increasing concentrations of H2AX-pY peptide was measured”.

`O=C(O)CN(CCN(CC(=O)O)CC(=O)O)CC(=O)O` [EDTA]: the “inhibition of Eya activity” value in series [1] (20 mM EDTA) was determined as 100%.
